Laboratory results published in US4973675A, “Hybrid nitrosoureidoanthracyclines having antitumor activity” (University of Tennessee Research Center, priority 1989, dated 1990).
pIC50: −log10 of the molar value. Like-named read-outs stand apart in the source and are kept apart here.

Key:
[1] = system: murine P388/adriamycin-resistant leukemia; conditions: Johnson et al. (1976); cited from earlier work
[2] = system: murine P388/adriamycin-resistant leukemia; experiment: In vivo antitumor activity vs. murine P388/adriamycin-resistant leukemia (P388/ADR)
Source text: (§2) Assays were run essentially according to the established protocols of the U.S. National Cancer Institute (Geran et al., 1972 "Protocols for Screening Chemical Agents and Natural Products Against Animal Tumors and Other Biological Systems" (3rd Ed.), Cancer Chemotherapy Rep. [3]33, 1-103.), with the test agent given at 3-5 incremental dose levels in each screening experiment and with median survival of treated groups referenced against data for untreated controls.
(§3) *B6D2F1 males; 1 × 10^6 tumor cell inoculum ip day 0; treatment

[3] = system: murine L1210 leukemia cells; experiment: Clonogenic assay with cultured murine L1210 leukemia cells, 1 h drug exposure (LD90); format: cell-based; conditions: Mus musculus, L1210; 1 hr drug exposure; read-out: L1210 LD90 (dose killing 90% of clonogens)
Protocol: (§1) Culture and bioassay conditions were as described in Cancer Chemotherapy Pharmacology 20:277 (1987) "Comparative Effects of Adriamycin and DNA-nonbinding Analogues on DNA, RNA, and Protein Synthesis in Vitro", Israel et al., except that cell counts were determined by hemocytometer rather than by automated cell counting.
+Dose killing 90% of clonogens, 1hr. drug exposure.

murine P388 leukemia = conditions: optimal dose 2.0 mg/kg, this protocol; cited from earlier work
[4] = system: murine P388/adriamycin-resistant leukemia; conditions: mouse, in vivo, ip
Source text: as §2, §3

[5] = system: human CEM leukemic lymphocytes; experiment: Growth inhibition of human CEM leukemic lymphocyte suspension cultures, 48 h continuous drug exposure (ID50); format: cell-based; conditions: Homo sapiens, Lymphocyte; suspension culture, 48 hr continuous drug exposure (Table 3); read-out: CEM, ID50 (50% growth-inhibitory concentration)
Protocol: as §1

[6] = system: plasmid PC15 supercoiled DNA; experiment: DNA unwinding assay (interference with DNA topoisomerase I-mediated unwinding; drug-DNA intercalation); format: biochemical; conditions: 0 = no intercalation, 9 = very strong intercalation
Source text: DNA unwinding assays were used to measure the ability of a test drug to interfere with DNA topoisomerase I-mediated unwinding of plasmid PC15 supercoiled DNA. DNA topoisomerase I controls the topology of double-stranded DNA and is itself not inhibited by DNA intercalating agents. Rather, intercalating agents cause distortion of the torsional angle between adjacent DNA strand components and thereby interfere with the ability of topoisomerase I to convert supercoiled DNA into relaxed forms. Accordingly, this assay is taken as the definitive test of drug-DNA intercalation.
Drugs were tested at 4 concentrations over a 125-fold concentration range. […] These compounds are 2-chloroethylurea derivatives of daunorubicin and adriamycin, respectively (i.e. not nitrosoureas, but chemical intermediates from which the nitrosoureas were derived).

## COc1cccc2c1C(=O)c1c(O)c3c(c(O)c1C2=O)C[C@@](O)(C(C)=O)C[C@@H]3O[C@H]1C[C@H](N)[C@H](O)[C@H](C)O1 [Daunorubicin, daunorubicin]
[1]
  in vivo sensitivity of P388/ADR: cross-resistant to daunorubicin
[2]; 18.0 mg/kg, d1 only
  toxicity flag: Toxic
[2]; P388/ADR in vivo, lack of response confirmed
  increase in life span: 0%
[2]; ip, 1.0 mg/kg qd 1-4
  Long-term survivors: 0/6
  Median increase in lifespan: +9%
  Median survival: 12 days
  Net mean percent weight change, day 7: +20%
  Range of death (dying animals): 11 to 12 days
[2]; ip, 2.0 mg/kg qd 1-4
  Long-term survivors: 0/7
  Median increase in lifespan: 0%
  Median survival: 11 days
  Range of death (dying animals): 11 to 12 days
[2]; ip, 3.0 mg/kg qd 1-4
  Long-term survivors: 0/7
  Median increase in lifespan: 0%
  Median survival: 11 days
  Range of death (dying animals): 10 to 12 days
[2]; ip, 4.0 mg/kg qd 1-4
  Long-term survivors: 0/7
  Median increase in lifespan: -9%
  Median survival: 10 days
  Range of death (dying animals): 9 to 12 days
[2]; ip, 12.0 mg/kg d1 only
  Long-term survivors: 0/7
  Median increase in lifespan: 0%
  Median survival: 10 days
  Range of death (dying animals): 9 to 11 days
[2]; ip, 15.0 mg/kg d1 only
  Long-term survivors: 0/7
  Median increase in lifespan: 0%
  Median survival: 10 days
  Range of death (dying animals): 8 to 11 days
[2]; ip, 18.0 mg/kg d1 only
  Long-term survivors: 0/7
  Median survival: 8 days
  Range of death (dying animals): 6 to 9 days
[2]; ip, 18.0 mg/kg d1 only, ** Toxic
  Median increase in lifespan: -20%
[3]
  IC90: 900 nM
Murine P388 leukemia
  ILS, historical results: +75 - +100%
  longterm survivors, historical results: no longterm survivors
[4]; 2 mg/kg
  Net mean percent weight change, day 7: -0.5%
[4]; 3 mg/kg
  Net mean percent weight change, day 7: -7%
[4]; 4 mg/kg
  Net mean percent weight change, day 7: -7%
[4]; 12 mg/kg
  Net mean percent weight change, day 7: -13%
[4]; 15 mg/kg
  Net mean percent weight change, day 7: -13%
[4]; 18 mg/kg
  Net mean percent weight change, day 7: -28%
[5]
  pIC50: 7.52
[6]
  relative strength of drug-DNA intercalation (arbitrary scale): 7
